From the kinase profiling compilation of Christmann-Franck et al. (2016)

What was measured:
Assay in all cases: KINOMEscan competition binding
Conditions in all cases: compound 10.0 µM
[1] = biological target: ACVR1B (human) (UniProt P36896)
[2] = biological target: BRAF (human) (UniProt P15056)
[3] = biological target: CDK15 (human) (UniProt Q96Q40)
[4] = biological target: CDK4 CCND1 (human) (UniProt P11802+P24385)
[5] = biological target: DAPK2 (human) (UniProt Q9UIK4)
[6] = biological target: DYRK1A (human) (UniProt Q13627)
[7] = biological target: EPHB2 (human) (UniProt P29323)
[8] = biological target: ERBB4 (human) (UniProt Q15303)
[9] = biological target: GSK3A (human) (UniProt P49840)
[10] = biological target: IGF1R (human) (UniProt P08069)
[11] = biological target: IKBKB (human) (UniProt O14920)
[12] = biological target: IKBKE (human) (UniProt Q14164)
[13] = biological target: KIT (human) (UniProt P10721)
[14] = tested on: KIT (human), P10721 [A829P]
[15] = biological target: MAK (human) (UniProt P20794)
[16] = biological target: MAP3K11 (human) (UniProt Q16584)
[17] = biological target: MAP3K2 (human) (UniProt Q9Y2U5)
[18] = biological target: MAP3K6 (human) (UniProt O95382)
[19] = biological target: MYO3A (human) (UniProt Q8NEV4)
[20] = biological target: NEK5 (human) (UniProt Q6P3R8)
[21] = biological target: PDGFRB (human) (UniProt P09619)
[22] = biological target: PIK3CG (human) (UniProt P48736)
[23] = biological target: PIP4K2B (human) (UniProt P78356)
[24] = biological target: PRKD2 (human) (UniProt Q9BZL6)
[25] = biological target: RPS6KA4 KD2 (human) (UniProt O75676)
[26] = biological target: RPS6KA5 KD1 (human) (UniProt O75582)
[27] = biological target: SIK1 (human) (UniProt P57059)
[28] = biological target: SRMS (human) (UniProt Q9H3Y6)
[29] = biological target: STK24 (human) (UniProt Q9Y6E0)
[30] = biological target: STK32B (human) (UniProt Q9NY57)
[31] = biological target: STK38L (human) (UniProt Q9Y2H1)
[32] = biological target: TAOK1 (human) (UniProt Q7L7X3)
[33] = biological target: TYK2 JH2 pseudokinase (human) (UniProt P29597)
[34] = tested on: ABL1 (human), P00519 [F317I]
[35] = tested on: ABL1 (human), P00519 [F317L]
[36] = biological target: ALK (human) (UniProt Q9UM73)
[37] = biological target: CSNK1A1 (human) (UniProt P48729)

Sequence of PRKD2 (human) (Q9BZL6 whole entry, looked up): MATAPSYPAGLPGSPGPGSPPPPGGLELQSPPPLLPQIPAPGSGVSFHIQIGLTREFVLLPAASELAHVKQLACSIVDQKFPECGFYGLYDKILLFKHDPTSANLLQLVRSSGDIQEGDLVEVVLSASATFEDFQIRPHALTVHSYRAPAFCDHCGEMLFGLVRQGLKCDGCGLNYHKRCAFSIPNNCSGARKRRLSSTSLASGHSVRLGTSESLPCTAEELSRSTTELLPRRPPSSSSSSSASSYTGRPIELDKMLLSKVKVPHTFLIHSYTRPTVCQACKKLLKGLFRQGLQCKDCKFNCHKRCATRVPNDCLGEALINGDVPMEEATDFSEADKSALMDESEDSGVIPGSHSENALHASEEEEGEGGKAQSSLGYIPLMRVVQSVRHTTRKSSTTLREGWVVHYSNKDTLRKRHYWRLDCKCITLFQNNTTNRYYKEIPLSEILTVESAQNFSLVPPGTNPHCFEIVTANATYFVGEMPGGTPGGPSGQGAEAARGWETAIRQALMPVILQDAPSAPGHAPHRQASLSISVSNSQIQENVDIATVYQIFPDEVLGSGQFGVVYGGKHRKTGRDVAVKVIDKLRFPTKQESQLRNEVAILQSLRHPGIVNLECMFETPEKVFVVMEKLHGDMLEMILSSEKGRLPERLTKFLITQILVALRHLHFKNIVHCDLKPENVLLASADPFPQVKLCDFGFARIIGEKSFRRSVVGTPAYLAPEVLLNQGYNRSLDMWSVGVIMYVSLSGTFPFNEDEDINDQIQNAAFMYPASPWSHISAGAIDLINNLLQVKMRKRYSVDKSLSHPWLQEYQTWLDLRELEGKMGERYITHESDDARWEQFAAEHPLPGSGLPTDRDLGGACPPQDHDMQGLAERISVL
Sequence of EPHB2 (human) (P29323 whole entry, looked up): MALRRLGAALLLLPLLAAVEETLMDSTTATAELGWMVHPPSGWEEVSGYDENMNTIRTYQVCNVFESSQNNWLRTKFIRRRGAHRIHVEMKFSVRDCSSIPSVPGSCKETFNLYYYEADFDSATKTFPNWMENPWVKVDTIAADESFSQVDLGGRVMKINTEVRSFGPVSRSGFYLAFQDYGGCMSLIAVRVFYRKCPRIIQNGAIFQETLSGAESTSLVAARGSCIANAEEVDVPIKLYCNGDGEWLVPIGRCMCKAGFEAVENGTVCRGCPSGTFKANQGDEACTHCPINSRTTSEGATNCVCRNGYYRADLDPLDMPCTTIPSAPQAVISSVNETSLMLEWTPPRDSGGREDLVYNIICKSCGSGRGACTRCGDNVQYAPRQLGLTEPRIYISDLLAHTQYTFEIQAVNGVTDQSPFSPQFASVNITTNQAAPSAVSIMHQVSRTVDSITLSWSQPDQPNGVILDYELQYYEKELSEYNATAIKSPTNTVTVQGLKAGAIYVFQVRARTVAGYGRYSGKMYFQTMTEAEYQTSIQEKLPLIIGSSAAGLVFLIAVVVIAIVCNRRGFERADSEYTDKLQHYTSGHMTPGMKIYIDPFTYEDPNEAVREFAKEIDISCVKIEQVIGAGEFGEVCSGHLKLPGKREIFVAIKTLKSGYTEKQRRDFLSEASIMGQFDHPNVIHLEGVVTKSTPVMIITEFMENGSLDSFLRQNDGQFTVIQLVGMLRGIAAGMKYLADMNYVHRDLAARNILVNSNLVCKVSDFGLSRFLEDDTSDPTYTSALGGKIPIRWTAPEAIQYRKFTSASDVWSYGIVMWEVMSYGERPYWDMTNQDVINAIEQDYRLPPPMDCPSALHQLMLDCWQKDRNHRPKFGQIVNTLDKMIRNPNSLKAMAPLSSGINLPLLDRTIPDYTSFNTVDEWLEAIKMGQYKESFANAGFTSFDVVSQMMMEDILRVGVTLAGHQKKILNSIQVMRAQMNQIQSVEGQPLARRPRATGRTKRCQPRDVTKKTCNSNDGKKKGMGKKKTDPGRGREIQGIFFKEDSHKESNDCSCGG
Sequence of MAK (human) (P20794 whole entry, looked up): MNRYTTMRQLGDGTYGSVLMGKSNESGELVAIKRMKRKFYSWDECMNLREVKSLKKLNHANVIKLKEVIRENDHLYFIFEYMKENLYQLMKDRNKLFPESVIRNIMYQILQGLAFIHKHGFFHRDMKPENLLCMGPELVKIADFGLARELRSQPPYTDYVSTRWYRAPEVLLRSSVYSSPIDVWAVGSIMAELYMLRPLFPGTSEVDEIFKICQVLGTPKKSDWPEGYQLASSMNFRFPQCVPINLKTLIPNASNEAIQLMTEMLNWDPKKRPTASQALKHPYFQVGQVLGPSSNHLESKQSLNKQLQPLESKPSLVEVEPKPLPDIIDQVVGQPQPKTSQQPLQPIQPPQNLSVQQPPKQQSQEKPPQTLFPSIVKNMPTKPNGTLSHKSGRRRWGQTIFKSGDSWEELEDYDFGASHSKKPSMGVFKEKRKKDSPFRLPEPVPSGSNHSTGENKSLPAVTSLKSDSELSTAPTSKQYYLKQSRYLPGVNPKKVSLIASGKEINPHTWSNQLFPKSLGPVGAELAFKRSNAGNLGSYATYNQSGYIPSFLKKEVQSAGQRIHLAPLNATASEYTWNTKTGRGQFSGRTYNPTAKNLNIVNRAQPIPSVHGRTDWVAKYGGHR
Sequence of IKBKE (human) (Q14164 whole entry, looked up): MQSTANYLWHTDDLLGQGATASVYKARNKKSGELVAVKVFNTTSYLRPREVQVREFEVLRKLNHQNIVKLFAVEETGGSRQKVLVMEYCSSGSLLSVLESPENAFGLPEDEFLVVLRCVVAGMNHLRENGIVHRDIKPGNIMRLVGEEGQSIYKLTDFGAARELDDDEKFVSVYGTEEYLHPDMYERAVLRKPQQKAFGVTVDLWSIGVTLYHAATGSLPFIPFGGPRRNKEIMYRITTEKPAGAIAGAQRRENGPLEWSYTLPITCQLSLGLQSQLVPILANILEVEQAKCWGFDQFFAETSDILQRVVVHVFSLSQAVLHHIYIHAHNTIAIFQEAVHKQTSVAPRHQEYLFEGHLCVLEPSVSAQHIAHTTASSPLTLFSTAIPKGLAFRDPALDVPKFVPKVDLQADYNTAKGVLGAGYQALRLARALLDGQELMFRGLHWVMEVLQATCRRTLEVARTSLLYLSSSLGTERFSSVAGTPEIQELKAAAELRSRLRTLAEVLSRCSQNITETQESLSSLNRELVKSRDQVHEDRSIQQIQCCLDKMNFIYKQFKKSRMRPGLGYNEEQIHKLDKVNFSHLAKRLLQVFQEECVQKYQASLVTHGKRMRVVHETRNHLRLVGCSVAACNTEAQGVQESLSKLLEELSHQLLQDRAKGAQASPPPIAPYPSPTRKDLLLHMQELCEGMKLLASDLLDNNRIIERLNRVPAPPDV
Sequence of MAP3K11 (human) (Q16584 whole entry, looked up): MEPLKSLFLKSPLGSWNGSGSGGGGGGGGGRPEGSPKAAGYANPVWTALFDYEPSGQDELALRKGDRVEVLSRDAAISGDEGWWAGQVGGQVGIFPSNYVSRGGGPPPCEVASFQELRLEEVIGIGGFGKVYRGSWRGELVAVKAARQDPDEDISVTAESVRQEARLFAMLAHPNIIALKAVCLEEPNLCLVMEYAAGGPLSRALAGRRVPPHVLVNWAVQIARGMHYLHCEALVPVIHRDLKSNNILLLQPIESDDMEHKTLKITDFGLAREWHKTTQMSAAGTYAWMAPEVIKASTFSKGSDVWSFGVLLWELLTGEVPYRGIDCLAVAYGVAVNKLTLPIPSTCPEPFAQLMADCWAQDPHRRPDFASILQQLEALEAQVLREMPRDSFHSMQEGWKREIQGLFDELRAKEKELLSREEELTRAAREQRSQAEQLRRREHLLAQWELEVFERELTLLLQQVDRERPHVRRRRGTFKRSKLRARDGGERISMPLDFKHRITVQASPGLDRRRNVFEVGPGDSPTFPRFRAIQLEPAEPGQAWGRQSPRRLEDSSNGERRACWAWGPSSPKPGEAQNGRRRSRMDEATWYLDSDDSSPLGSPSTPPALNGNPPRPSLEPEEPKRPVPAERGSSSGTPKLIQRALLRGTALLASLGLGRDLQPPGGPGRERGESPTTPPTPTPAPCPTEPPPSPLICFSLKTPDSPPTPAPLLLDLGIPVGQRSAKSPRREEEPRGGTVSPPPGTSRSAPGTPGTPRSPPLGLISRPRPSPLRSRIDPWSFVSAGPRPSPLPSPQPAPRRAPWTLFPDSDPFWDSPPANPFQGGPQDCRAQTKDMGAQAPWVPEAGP
Sequence of DAPK2 (human) (Q9UIK4 whole entry, looked up): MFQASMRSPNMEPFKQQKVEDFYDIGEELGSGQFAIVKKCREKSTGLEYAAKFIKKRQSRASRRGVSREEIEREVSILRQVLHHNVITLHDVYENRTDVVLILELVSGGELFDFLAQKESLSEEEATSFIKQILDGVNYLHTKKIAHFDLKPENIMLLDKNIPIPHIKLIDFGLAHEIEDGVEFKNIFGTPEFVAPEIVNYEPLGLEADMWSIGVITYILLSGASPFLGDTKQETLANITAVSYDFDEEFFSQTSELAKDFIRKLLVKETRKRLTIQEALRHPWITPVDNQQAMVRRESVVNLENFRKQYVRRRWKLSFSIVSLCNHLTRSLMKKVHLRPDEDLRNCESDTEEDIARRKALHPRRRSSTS
Sequence of GSK3A (human) (P49840 whole entry, looked up): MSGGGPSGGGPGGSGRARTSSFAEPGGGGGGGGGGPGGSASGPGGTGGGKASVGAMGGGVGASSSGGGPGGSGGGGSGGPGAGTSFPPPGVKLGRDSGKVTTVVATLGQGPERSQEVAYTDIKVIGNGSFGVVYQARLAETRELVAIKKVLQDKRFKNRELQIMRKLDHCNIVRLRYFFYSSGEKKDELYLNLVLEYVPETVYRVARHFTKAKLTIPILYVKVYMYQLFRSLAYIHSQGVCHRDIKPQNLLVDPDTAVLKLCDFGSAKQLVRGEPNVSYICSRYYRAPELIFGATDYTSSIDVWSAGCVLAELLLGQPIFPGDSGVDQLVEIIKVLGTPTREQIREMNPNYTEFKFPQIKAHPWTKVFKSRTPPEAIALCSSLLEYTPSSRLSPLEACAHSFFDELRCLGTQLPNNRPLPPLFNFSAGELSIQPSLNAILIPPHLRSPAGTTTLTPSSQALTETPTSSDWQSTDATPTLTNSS

| SMILES | kinase still bound, per cent of control [1] | kinase still bound, per cent of control [3] | kinase still bound, per cent of control [5] | kinase still bound, per cent of control [6] | kinase still bound, per cent of control [7] | kinase still bound, per cent of control [8] | kinase still bound, per cent of control [9] | kinase still bound, per cent of control [10] | kinase still bound, per cent of control [11] | kinase still bound, per cent of control [12] | kinase still bound, per cent of control [13] | kinase still bound, per cent of control [15] | kinase still bound, per cent of control [16] | kinase still bound, per cent of control [17] | kinase still bound, per cent of control [18] | kinase still bound, per cent of control [19] | kinase still bound, per cent of control [20] | kinase still bound, per cent of control [21] | kinase still bound, per cent of control [22] | kinase still bound, per cent of control [23] | other results |
| --- | --- | --- | --- | --- | --- | --- | --- | --- | --- | --- | --- | --- | --- | --- | --- | --- | --- | --- | --- | --- | --- |
| CCc1nc(-c2cccc(C)c2)c(-c2ccnc(NC(=O)c3ccccc3)c2)s1 | 4.6% | 95% | 88% | 69% | 80% | 2.8% | 100% | 100% | 100% | 100% | 45% | 70% | 70% | 100% | 100% | 60% | 100% | 34% | 100% | 93% | kinase still bound, per cent of control [2]: 40%; kinase still bound, per cent of control [4]: 84%; kinase still bound, per cent of control [14]: 100%; kinase still bound, per cent of control [24]: 46%; kinase still bound, per cent of control [25]: 100%; kinase still bound, per cent of control [26]: 100%; kinase still bound, per cent of control [27]: 100%; kinase still bound, per cent of control [28]: 83%; kinase still bound, per cent of control [29]: 69%; kinase still bound, per cent of control [30]: 7%; kinase still bound, per cent of control [31]: 96%; kinase still bound, per cent of control [32]: 72%; kinase still bound, per cent of control [33]: 57% |
| CCOc1cc(N2CCC(O)CC2)ccc1Nc1ncc2c(n1)N(C)c1ccccc1C(=O)N2C | 100% | 100% | 100% | 100% | 100% | 100% | 100% | 100% | 100% | 100% | 100% | 100% | 100% | 100% | 100% | 100% | 100% | 100% | 100% | 100% | kinase still bound, per cent of control [34]: 30%; kinase still bound, per cent of control [35]: 100%; kinase still bound, per cent of control [36]: 29%; kinase still bound, per cent of control [2]: 100%; kinase still bound, per cent of control [24]: 100%; kinase still bound, per cent of control [25]: 100%; kinase still bound, per cent of control [26]: 100%; kinase still bound, per cent of control [27]: 100%; kinase still bound, per cent of control [28]: 100%; kinase still bound, per cent of control [29]: 100%; kinase still bound, per cent of control [30]: 100%; kinase still bound, per cent of control [31]: 100%; kinase still bound, per cent of control [32]: 100%; kinase still bound, per cent of control [33]: 100% |
| C=CC(=O)Nc1ccc(C(=O)c2sc(Nc3ccc(N4CCN(C)CC4)cc3OC)nc2N)cc1 | 100% | 87% | 2.8% | 0.15% | 100% | 61% | 67% | 86% | 85% | 84% | 78% | 100% | 100% | 68% | 84% | 35% | 100% | 54% | 96% | 32% | kinase still bound, per cent of control [36]: 8.4%; kinase still bound, per cent of control [4]: 10%; kinase still bound, per cent of control [37]: 73%; kinase still bound, per cent of control [14]: 63%; kinase still bound, per cent of control [24]: 70%; kinase still bound, per cent of control [25]: 0.2%; kinase still bound, per cent of control [26]: 100%; kinase still bound, per cent of control [27]: 83%; kinase still bound, per cent of control [28]: 66%; kinase still bound, per cent of control [29]: 71%; kinase still bound, per cent of control [30]: 71%; kinase still bound, per cent of control [31]: 68%; kinase still bound, per cent of control [32]: 32%; kinase still bound, per cent of control [33]: 66% |
| CCN1CCN(Cc2ccc(NC(=O)c3ccc(C)c(/C=C/c4cnc5[nH]ccc5c4OC)c3)cc2C(F)(F)F)CC1 | 98% | 36% | 100% | 63% | 0% | 0.1% | 100% | 100% | 0.15% | 94% | 0% | 100% | 3.6% | 0.65% | 64% | 28% | 4.3% | 0.05% | 96% | 0.4% | kinase still bound, per cent of control [36]: 51%; kinase still bound, per cent of control [4]: 74%; kinase still bound, per cent of control [37]: 87%; kinase still bound, per cent of control [14]: 64%; kinase still bound, per cent of control [24]: 50%; kinase still bound, per cent of control [25]: 30%; kinase still bound, per cent of control [26]: 34%; kinase still bound, per cent of control [27]: 0.9%; kinase still bound, per cent of control [28]: 0.7%; kinase still bound, per cent of control [29]: 20%; kinase still bound, per cent of control [30]: 100%; kinase still bound, per cent of control [31]: 35%; kinase still bound, per cent of control [32]: 0.75%; kinase still bound, per cent of control [33]: 100% |
